The values that follow come from patent publication US8901072B2, “Glycopeptide and lipoglycopeptide antibiotics with improved solubility” (The Medicines Company, priority 2009, dated 2014).

Values after ≈ are worked out from the molar mass of the structure shown. A value given as a limit tells only on which side of the number the result lay.

Data set [1] is described as follows: Solubility in phosphate buffered saline. The note with it: 10 mM phosphate buffered saline (0.138 M NaCl, 2.7 mM KCl), pH 7.4. The data set is classed as physicochemical. Here is the method:
To a sample of the material of known mass were added known volumes of phosphate buffered saline until complete dissolution is observed. Suspensions were centrifuged for 5 min at 10000 rpm. […] Upon complete dissolution, the solution is diluted until the final concentration is 0.5 mg/mL to ensure that the material remains soluble over the entire range of concentrations.

Another data set relates to S. aureus ATCC 13709. The experiment in a line: In vitro antibacterial susceptibility (MIC, broth microdilution). The note with it: for MIC against S. aureus ATCC 13709, CAMHB: cation-adjusted Mueller-Hinton broth, 37° C., 18 h; for Antibacterial activity compared with oritavancin 5: deduced from the MIC data of Table 2. The data set is classed as cell-based. Here is the method:
Susceptibility of S. aureus strain ATCC13709 to oritavancin (5) and synthesized compounds was determined following the guidelines set by the Clinical and Laboratory Standards Institute (formerly the National Committee for Clinical Laboratory Standards) (M26-A). Compounds were serially diluted two-fold in either DMSO (Oritavancin 5) or in PBS and transferred to cation-adjusted Mueller Hinton broth (CAMHB; Becton Dickinson). 50 μL of compounds diluted in CAMHB was mixed with 100 μL of bacteria diluted in CAMHB in 96-well microtiter plates. The final number of micro-organisms in the assay was 5×10^5 c.f.u. per mL and the final concentration of DMSO in the assay, if present, was 1.25%. All solutions may contain 0.002% Tween as indicated. Assays were set up in duplicate and incubated at 37° C. for 18 h. The concentration of compound that inhibited visible growth was reported as the minimum inhibitory concentration (MIC).

On to `CC(C)CC(C(=O)NC1C(=O)NC(CC(N)=O)C(=O)NC2C(=O)NC3C(=O)NC(C(=O)NC(C(=O)O)c4cc(O)cc(O)c4-c4cc3ccc4O)C(OC3CC(C)(N)C(O)C(C)O3)c3ccc(c(Cl)c3)Oc3cc2cc(c3OC2OC(CO)C(O)C(O)C2OC2CC(C)(NCc3ccc(-c4ccc(Cl)cc4)cc3)C(O)C(C)O2)Oc2ccc(cc2Cl)C1O)N(C)C(=O)OCOC(=O)C(CCCCN)NC(=O)C(N)CCCCN` (stereo not shown) [Compound 56], for which the “Solubility (mg/mL) PBS” value in data set [1] is >5 mg/mL. Moreover, in the data set with S. aureus ATCC 13709, the “MIC against S. aureus ATCC 13709, CAMHB + 0.002% tween” value (“MIC … CAMHB + 0.002% tween” below) turned out to be 0.5 mg/L; the “MIC against S. aureus ATCC 13709, CAMHB + 50% human serum” value (from here on “MIC … CAMHB + 50% human serum”) is 4 mg/L; the “MIC against S. aureus ATCC 13709, CAMHB + 50% mouse serum” value (from here on “MIC … CAMHB + 50% mouse serum”) was determined as 0.5 mg/L; the “MIC against S. aureus ATCC 13709, CAMHB + 50% rat serum” value (from here on “MIC … CAMHB + 50% rat serum”) is 0.25 mg/L. In the data set on S. aureus ATCC 13709, the “MIC against S. aureus ATCC 13709, CAMHB” value amounted to 2 mg/L (≈ 0.942 µM) and the “Antibacterial activity compared with oritavancin 5” value is given as “within an order of magnitude of that of oritavancin 5”.
Take `CC(C)CC(C(=O)NC1C(=O)NC(CC(N)=O)C(=O)NC2C(=O)NC3C(=O)NC(C(=O)NC(C(=O)O)c4cc(O)cc(O)c4-c4cc3ccc4O)C(OC3CC(C)(N)C(O)C(C)O3)c3ccc(c(Cl)c3)Oc3cc2cc(c3OC2OC(CO)C(O)C(O)C2OC2CC(C)(NCc3ccc(-c4ccc(Cl)cc4)cc3)C(O)C(C)O2)Oc2ccc(cc2Cl)C1O)N(C)C(=O)CNC(=O)C(N)CCCCN` (stereo not shown) [Compound 61]: the “Solubility (mg/mL) PBS” value in data set [1] was <0.5 mg/mL. In the data set on S. aureus ATCC 13709, the “MIC … CAMHB + 0.002% tween” value came to 0.25 mg/L; the “MIC … CAMHB + 50% human serum” value is 0.25 mg/L; the “MIC … CAMHB + 50% mouse serum” value is 1 mg/L; the “MIC … CAMHB + 50% rat serum” value was found to be 0.5 mg/L. In the data set on S. aureus ATCC 13709, the “MIC against S. aureus ATCC 13709, CAMHB” value worked out at 2 mg/L (≈ 1.01 µM) and the “Antibacterial activity compared with oritavancin 5” value is “within an order of magnitude of that of oritavancin 5”.
`CC(C)CC(C(=O)NC1C(=O)NC(CC(N)=O)C(=O)NC2C(=O)NC3C(=O)NC(C(=O)NC(C(=O)O)c4cc(O)cc(O)c4-c4cc3ccc4O)C(OC3CC(C)(N)C(O)C(C)O3)c3ccc(c(Cl)c3)Oc3cc2cc(c3OC2OC(CO)C(O)C(O)C2OC2CC(C)(NCc3ccc(-c4ccc(Cl)cc4)cc3)C(O)C(C)O2)Oc2ccc(cc2Cl)C1O)N(C)C(=O)OCc1ccc(OP(=O)(O)O)cc1` (stereo not shown) [Compound 70]: in data set [1], the “Solubility (mg/mL) PBS” value turned out to be 8 mg/mL (≈ 3950 µM). In addition, in the data set with S. aureus ATCC 13709, the “MIC … CAMHB + 0.002% tween” value was found to be 1 mg/L; the “MIC … CAMHB + 50% human serum” value turned out to be 32 mg/L; the “MIC … CAMHB + 50% mouse serum” value came out at 32 mg/L; the “MIC … CAMHB + 50% rat serum” value was >32 mg/L. Further, in the data set on S. aureus ATCC 13709, the “MIC against S. aureus ATCC 13709, CAMHB” value came to 2 mg/L (≈ 0.989 µM) and the “Antibacterial activity compared with oritavancin 5” value is “weaker activities”.
Take `CC(C)CC(C(=O)NC1C(=O)NC(CC(N)=O)C(=O)NC2C(=O)NC3C(=O)NC(C(=O)NC(C(=O)O)c4cc(O)cc(O)c4-c4cc3ccc4O)C(OC3CC(C)(N)C(O)C(C)O3)c3ccc(c(Cl)c3)Oc3cc2cc(c3OC2OC(CO)C(O)C(O)C2OC2CC(C)(NCc3ccc(-c4ccc(Cl)cc4)cc3)C(O)C(C)O2)Oc2ccc(cc2Cl)C1O)N(C)C(=O)OCOC(=O)CCC(=O)NC(CCC(=O)O)(CCC(=O)O)CCC(=O)O` (stereo not shown) [Compound 78]: in data set [1], the “Solubility (mg/mL) PBS” value is on record as 4 mg/mL (≈ 1820 µM). For the same molecule, in the data set with S. aureus ATCC 13709, the “MIC … CAMHB + 0.002% tween” value is 1 mg/L; the “MIC … CAMHB + 50% human serum” value was determined as 16 mg/L; the “MIC … CAMHB + 50% mouse serum” value turned out to be 32 mg/L; the “MIC against S. aureus ATCC 13709, CAMHB” value amounted to 8 mg/L (≈ 3.64 µM). Also, the “Antibacterial activity compared with oritavancin 5” value with S. aureus ATCC 13709 is on record as “weaker activities”.
`CC(C)CC(C(=O)NC1C(=O)NC(CC(N)=O)C(=O)NC2C(=O)NC3C(=O)NC(C(=O)NC(C(=O)O)c4cc(O)cc(O)c4-c4cc3ccc4O)C(OC3CC(C)(N)C(O)C(C)O3)c3ccc(c(Cl)c3)Oc3cc2cc(c3OC2OC(CO)C(O)C(O)C2OC2CC(C)(NCc3ccc(-c4ccc(Cl)cc4)cc3)C(O)C(C)O2)Oc2ccc(cc2Cl)C1O)N(C)C(=O)OCOC(=O)CCP(=O)(O)O` (stereo not shown) [Compound 84]: the “Solubility (mg/mL) PBS” value in data set [1] was in the range of 0.5 to 1 mg/mL. In addition, in the data set with S. aureus ATCC 13709, the “MIC … CAMHB + 0.002% tween” value was determined as 0.125 mg/L; the “MIC … CAMHB + 50% human serum” value turned out to be 0.5 mg/L; the “MIC … CAMHB + 50% mouse serum” value is 2 mg/L; the “MIC against S. aureus ATCC 13709, CAMHB” value was 1 mg/L (≈ 0.499 µM). For the same molecule, the “Antibacterial activity compared with oritavancin 5” value in the data set with S. aureus ATCC 13709 was “within an order of magnitude of that of oritavancin 5”.
As for `CNC(CC(C)C)C(=O)NC1C(=O)NC(CC(N)=O)C(=O)NC2C(=O)NC3C(=O)NC(C(=O)NC(C(=O)OCC(=O)NCCCCN)c4cc(O)cc(O)c4-c4cc3ccc4O)C(OC3CC(C)(N)C(O)C(C)O3)c3ccc(c(Cl)c3)Oc3cc2cc(c3OC2OC(CO)C(O)C(O)C2OC2CC(C)(NCc3ccc(-c4ccc(Cl)cc4)cc3)C(O)C(C)O2)Oc2ccc(cc2Cl)C1O` (stereo not shown) [Compound 90c], the “Solubility (mg/mL) PBS” value in data set [1] is reported as <1.6 mg/mL. In the data set with S. aureus ATCC 13709, the “MIC … CAMHB + 0.002% tween” value is 0.25 mg/L; the “MIC … CAMHB + 50% human serum” value worked out at 0.125 mg/L; the “MIC … CAMHB + 50% mouse serum” value turned out to be 0.5 mg/L; the “MIC against S. aureus ATCC 13709, CAMHB” value was determined as 1 mg/L (≈ 0.52 µM). Moreover, in the data set on S. aureus ATCC 13709, the “Antibacterial activity compared with oritavancin 5” value is given as “within an order of magnitude of that of oritavancin 5”.
Turning to `CNC(CC(C)C)C(=O)NC1C(=O)NC(CC(N)=O)C(=O)NC2C(=O)NC3C(=O)NC(C(=O)NC(C(=O)OCC(=O)N(C)CCN(C)C)c4cc(O)cc(O)c4-c4cc3ccc4O)C(OC3CC(C)(N)C(O)C(C)O3)c3ccc(c(Cl)c3)Oc3cc2cc(c3OC2OC(CO)C(O)C(O)C2OC2CC(C)(NCc3ccc(-c4ccc(Cl)cc4)cc3)C(O)C(C)O2)Oc2ccc(cc2Cl)C1O` (stereo not shown) [Compound 103], the “Solubility (mg/mL) PBS” value in data set [1] is “≧100 mg/mL”. Further, in the data set on S. aureus ATCC 13709, the “MIC … CAMHB + 0.002% tween” value is 0.25 mg/L; the “MIC … CAMHB + 50% human serum” value came out at 0.25 mg/L; the “MIC … CAMHB + 50% mouse serum” value is 0.5 mg/L; the “MIC … CAMHB + 50% rat serum” value is 0.125 mg/L. Also, in the data set with S. aureus ATCC 13709, the “MIC against S. aureus ATCC 13709, CAMHB” value came to 2 mg/L (≈ 1.03 µM) and the “Antibacterial activity compared with oritavancin 5” value is “within an order of magnitude of that of oritavancin 5”.
